Laboratory results reported in the METLIN SMRT retention time set (Domingo-Almenara et al. 2019).

Test: gradient 5% acetonitrile 3 min, to 50% in 2 min, to 85% in 15 min, held 3 min, 100 µL/min
Settings: column: Zorbax Extend-C18 2.1 x 50 mm; eluents: water / acetonitrile, 0.1% formic acid
In short: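 Each retention time is based on an adduct peak selected computationally and verified by manual inspection. Measurements used HPLC–quadrupole time-of-flight mass spectrometry in positive and negative ionization mode on mixtures of ~100 pure standards. Chromatography ran on a Zorbax Extend-C18 column (2.1 × 50 mm, 1.8 μm) at 100 μL/min with water and acetonitrile, each containing 0.1% formic acid, and dead and dwell volumes of 40 μL and 900 μL.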

| SMILES | RP-LC retention time |
| --- | --- |
| Cc1ccc(CNc2cc(-n3cccn3)ncn2)cc1 | 898 s |
| CCCC(C)C(=O)NC1CCN(C2=NS(=O)(=O)C(c3ccc(C)c(C)c3)=C2C)CC1 (stereo not drawn) | 927 s |
| O=C([C@@H]1C[C@H](F)CN1S(=O)(=O)c1ccccc1F)N1CCCCC1 | 743 s |
| CCSc1nc2c(s1)c(=O)n(-c1ccccc1)c(=O)n2CC(=O)NCc1ccccc1 | 924 s |
| CCCC(=O)Nc1nc(-c2ccc3c(c2)NC(=O)CO3)cs1 | 728 s |
| CC(C)NC(=O)N(C1CC1)C1CCOC2(CCN(C(=O)Cc3ccsc3)CC2)C1 (stereo not drawn) | 770 s |
| O=C1COc2ccc(NC(=O)c3cc(C4CC4)n(C4CCS(=O)(=O)C4)n3)cc2N1 (stereo not drawn) | 652 s |
| CCCC(=O)Nc1nc(-c2ccccc2)c(C(=O)OCC)s1 | 973 s |
| CCS(=O)(=O)Nc1cc(-c2nnc(C(C)C)o2)sc1C | 863 s |
| Cc1cc2c(cc1NC(=O)c1cccs1)n(C)c(=O)c(=O)n2C | 663 s |
| CCCS(=O)(=O)N1CC(=O)N(c2cccc(F)c2)C(C)(C(=O)NC2CCCCCC2)C1 (stereo not drawn) | 956 s |
| Cc1ccc(S(=O)(=O)Cc2noc(-c3ccc(Cl)cc3)n2)cc1 | 1040 s |
| Cc1ccc(NC(=O)Cn2c(=O)n(-c3ccc(F)cc3)c(=O)c3c2cc(C)n3C)c(Cl)c1 | 946 s |
| Cc1nc(-c2cccc(NC(=O)c3cccc(F)c3)c2)cs1 | 856 s |
| O=S(=O)(NCC(O)c1ccc(C(F)(F)F)cc1)c1ccc2c(c1)OCCO2 (stereo not drawn) | 817 s |
| O=C(Cn1c(=O)cc(C(=O)N2CCc3ccccc3C2)c2ccccc21)Nc1ccc2c(c1)OCCO2 | 831 s |
| CCOc1cccc(-c2noc(Cn3ccn(-c4c(C)cccc4C)c(=O)c3=O)n2)c1 | 951 s |
| O=C(Nc1ccc(N2CCOCC2)cc1)C1(CCO)CCN(c2ncccn2)C1 (stereo not drawn) | 549 s |
| Cc1ccsc1C(=O)N1CCC(C2CCN(S(C)(=O)=O)CC2)C1 (stereo not drawn) | 626 s |
| CCCC(=O)Nc1ccc2c(c1)CN(C(=O)CC1CCCC1)C(C(=O)N(C)C)C2 (stereo not drawn) | 716 s |
| Cc1ccc(Cl)cc1N1C(=O)CN(S(C)(=O)=O)CC1(C)C(=O)NC1CCCCCCC1 (stereo not drawn) | 980 s |
| COc1cc(C)c(C(C)C)cc1S(=O)(=O)NCc1ccco1 | 594 s |

| SMILES | RP-LC retention time |
| --- | --- |
| O=S(=O)(NCc1cccnc1-c1ccc(F)cc1)c1ccc(F)cc1 | 737 s |
| CCc1nc(-c2csc(S(=O)(=O)N3CCC(C(=O)N4CCC5(CC4)OCCO5)CC3)c2)no1 | 816 s |
| O=C(Cn1cccc(-c2nc(-c3ccc(Br)cc3)no2)c1=O)NCc1ccccc1 | 939 s |
| CCOC(=O)c1c(C)[nH]c(C(=O)N2CCCC(C(=O)NCCCN3CCCC3)C2)c1C (stereo not drawn) | 589 s |
| Cc1cc2c(c(=O)n(-c3ccccc3)c(=O)n2CC(=O)Nc2ccc(F)cc2)n1C | 797 s |
| Cc1ccccc1NC(=O)N1CCN(c2ccc(=O)n(-c3ccccc3)n2)CC1 | 744 s |
| CCn1cc(S(=O)(=O)Nc2ccccc2OC)c2cccnc21 | 831 s |
| CC(C)n1cnc2cc(CNC(=O)c3c(F)cccc3Cl)ccc21 | 617 s |
| O=C(Nc1cccc(F)c1)C1CCCN(S(=O)(=O)c2c[nH]c(C(=O)N3CCCCCC3)c2)C1 (stereo not drawn) | 919 s |
| CCC(=O)N1CCc2sc(S(=O)(=O)N3CCN(c4ccccc4C)CC3)cc2C1 | 1030 s |
| O=C(Nc1nnc(SCc2nnc(-c3cccc(F)c3)o2)s1)c1ccccc1 | 887 s |
| Cc1ccc(-n2ccc(=O)c(-c3nc(-c4ccc(F)c(Br)c4)no3)n2)cc1 | 1080 s |
| O=C(NC1CCCC1)N1CCC(OC2CCN(Cc3ccccc3)CC2)CC1 | 634 s |
| Cn1nnc2ccc(-c3noc(-c4ccc(Cl)cc4)n3)cc21 | 1090 s |
| O=C(NOCCc1ccccc1)Nc1ccc([N+](=O)[O-])cc1 | 843 s |
| COC(=O)c1nnn(-c2ccccc2C(F)(F)F)c1N | 936 s |
| COc1ccc2[nH]cc(CCNC(=O)CCc3nnc(C(=O)Nc4ccccc4)s3)c2c1 | 803 s |
| CCOc1cccc(-c2noc(Cn3c(=O)n(-c4ccccc4C)c(=O)c4sccc43)n2)c1 | 1070 s |
| Nc1ncnc(N2CCN(c3ccc(Cl)c(Cl)c3)CC2)c1[N+](=O)[O-] | 909 s |
| O=C(CN1C(=O)C(C(=O)N2CCCCCC2)Sc2ccccc21)N1CCN(c2ccccn2)CC1 (stereo not drawn) | 650 s |
| O=C1CCCc2cc(S(=O)(=O)NCCCN3CCN(c4ccccc4F)CC3)ccc2N1 | 621 s |

Other lines, results leading:

| RP-LC retention time | SMILES |
| --- | --- |
| 764 s | CCCCNC(=O)c1cccc2c1CCN2C(=O)C1CC1 |
| 1050 s | CCCCNC(=O)Cn1c(=O)c2cnc(-c3ccc(Cl)cc3)nc2n(CC)c1=O |
| 566 s | Cc1ccc(Nc2ccc(NC(=O)C3CCCC3)cc2)nn1 |
| 640 s | O=C(Cc1cccs1)Nc1ccc(-c2nnc3n2CCCC3)cc1 |
| 717 s | COc1ccc(C)cc1NC(=O)N1C[C@@H]2C[C@H](NS(C)(=O)=O)[C@H]1C2 |
| 776 s | COc1ccc(S(=O)(=O)NCCc2ccc(N3CCCC3)cc2)cc1OC |
| 868 s | COC(=O)c1nc(NC(=O)Cn2nc3c(cc2=O)CCCC3)sc1Cc1ccccc1 |
| 668 s | Cc1nn(CC(=O)NCCCN2CCCC2=O)c(=O)c2nc(-c3ccccc3)sc12 |
| 645 s | CCCNC(=O)C1CCN(c2ccc(SCC(=O)Nc3cccc(F)c3)nn2)CC1 |
| 1090 s | CCOc1cccc(-c2noc(Cn3cnc4c(cnn4-c4ccc(OC)cc4)c3=O)n2)c1 |
| 592 s | COc1cc2c(cc1OC)C(C(=O)NCCCN1CCOCC1)C1c3ccccc3CCN1C2=O (stereo not drawn) |
| 1060 s | O=C(CN1CCCCC1c1nc(-c2cccc(F)c2)no1)NCc1cccs1 (stereo not drawn) |
| 772 s | COc1cccc(N2CCN(C(=O)CN3CCN(Cc4ccc(C)cc4)C(=O)C3=O)CC2)c1 |
| 776 s | COc1ccc(C(=O)NC2CCN(c3cc(-c4ccc(Cl)cc4)[nH]n3)C2)cc1 (stereo not drawn) |
| 851 s | Cc1cc(C2CCCN2C(=O)Cc2ccc(F)cc2Cl)no1 (stereo not drawn) |
| 906 s | CCOCCn1c(=O)c2c(nc3n2CCCCN3c2ccc(OCC)cc2)n(C)c1=O |
| 767 s | CCOC(=O)c1sc2cccc(F)c2c1S(=O)(=O)N1CCN(c2ccccn2)CC1 |
| 991 s | Cc1nc(-c2ccc3c(c2)CCN3C(=O)Cc2cccc(F)c2)cs1 |
| 1010 s | CCOc1cc(C(=O)N2CCCC(C)(C(=O)NCc3ccc(C)cc3)C2)cc(OCC)c1OCC (stereo not drawn) |
| 881 s | COc1ccccc1-c1noc(C2CCCN2C(=O)Nc2cccc(C)c2)n1 (stereo not drawn) |
| 832 s | COc1ccc(-c2nc3nccc(-c4ccsc4)n3n2)c(OC)c1 |
| 633 s | CC(=O)N[C@@H]1CN(C(=O)COc2ccc(Cl)cc2)C[C@H]1CO |
| 741 s | Cc1c(C(=O)NC2CCCC2)cnn1-c1ccc(-c2nc(C(C)C)no2)cn1 |

| RP-LC retention time | SMILES |
| --- | --- |
| 1120 s | COc1ccc(-c2noc(-c3nc(C(C)C)no3)n2)cc1 |
| 937 s | Cc1nn(CC(=O)NC2CCCc3ccccc32)c(=O)c2c(C)n(-c3ccccc3)nc12 (stereo not drawn) |
| 789 s | CCOC(=O)c1ccc(NC(=O)C2CCN(S(=O)(=O)c3cn(C(C)C)cn3)CC2)cc1 |
| 645 s | COc1ccc(NC(=O)C2CCN(c3cc(N4CCCCC4)ncn3)CC2)cc1OC |
| 774 s | CCC(C(=O)NCc1ccccc1)n1cnc2nc3c(cc2c1=O)CCCC3 (stereo not drawn) |
| 907 s | O=C(Cn1cccc1-c1nnc(C2CCC2)o1)NCc1ccc(Cl)cc1 |
| 882 s | COc1ccc(-c2noc(CN3C(=O)COc4ccccc43)n2)cc1OC |
| 759 s | Cc1ccccc1Oc1ccc(S(=O)(=O)NCCC(=O)O)cc1 |
| 1010 s | CCOC(=O)Cn1c(=O)c2c(nc3n2CC(C)CN3c2ccc(Br)cc2)n(C)c1=O (stereo not drawn) |
| 772 s | COc1cccc(-c2cc(C(=O)N3CCN(c4ccccc4F)CC3)n(C)n2)c1 |
| 739 s | CCC(C(=O)NCCc1c(C)noc1C)n1c2ccccc2c2cnn(C)c(=O)c21 (stereo not drawn) |
| 1100 s | COc1cccc(-c2nc(Cc3nc(-c4ccccc4)oc3C)no2)c1 |
| 793 s | O=C(NCC1CCCO1)C1CCCN(c2ccc(Sc3ccc(Br)cc3)nn2)C1 (stereo not drawn) |
| 844 s | COc1ccc(C)cc1NC(=O)C1N(C(C)C)C(=O)C12CCCC2 (stereo not drawn) |
| 1040 s | COc1ccc(Cl)cc1NC(=O)c1[nH]c(C)c(S(=O)(=O)N2CCCC2)c1C |
| 1160 s | COc1ccc2c(c1)CCc1sc(NC(=O)c3ccc(Cl)cc3)nc1-2 |
| 843 s | CCc1ccc(NC(=O)Cn2cnc3onc(C)c3c2=O)cc1 |
| 603 s | C=CCN1CCN(c2ccc3nnc(CCc4nc(-c5ccc(OC)cc5)no4)n3n2)CC1 |
| 841 s | COc1ccc(C2CCCN2C(=O)c2c(Br)cnn2C)cc1 (stereo not drawn) |
| 870 s | COc1ccc(-c2noc(C3CC(=O)N(c4ccc(C(C)C)cc4)C3)n2)cc1OC (stereo not drawn) |
| 745 s | CCN1C(=O)c2cccnc2Sc2cc(NC(=O)C3CCC3)ccc21 |
| 722 s | CNC(=O)c1ccccc1Nc1nc(Nc2ccc(N3CCOCC3)cc2OC)ncc1Cl |
